Patent US12129237B2, “Substituted diaminocarboxamide and diaminocarbonitrile pyrimidines, compositions thereof, and methods of treatment therewith” (SIGNAL PHARMACEUTICALS, LLC, priority 2011, dated 2024)
pIC50: −log10 of the molar value.

Target: T1, JNK1 (Homo sapiens, UniProt P45983)
T1 construct: purchased Carna Biosciences
Assay: JNK1 biochemical assays (one or more of: time resolved fluorescence, Z'-LYTE Cascade, radioactive)
Settings: Table 2; JNK1 IC50 activity level; read-out: Act. Level
Description: JNK1 Assay. A 384-well time resolved fluorescence assay was used to monitor JNK1 activity. The JNK1 assay was run in the following assay buffer: 50 mM HEPES, 10 mM MgCl2, 1 mM EGTA, 2 mM DTT, and 0.01% Tween 20. To initiate the reaction 100 nM of ULight™-labeled 4EBP1 peptide (Perkin-Elmer) and 5 μM of ATP were mixed with 500 pM of JNK1 (Carna Biosciences), for a total assay volume of 20 μL in each well. The assay was incubated at room temperature for 1 h and terminated using a mixture of 30 mM EDTA and 4 nM Eu-anti-4EBP1, by adding 20 μL of stop solution to each well. Plates were read on a Perkin-Elmer Envision Reader.
JNK1 Assay. The JNK1 Z′-LYTE® Cascade kinase assay was run in the following buffer: 50 mM HEPES at pH 7.5, 0.01% BRIJ-35, 10 mM MgCl2, 1 mM EGTA, and 1 mM DTT. […] The assay was incubated at room temperature for 1 h. […] The data was then read on a fluorescence plate reader and analyzed.
JNK1 assay. The radioactive JNK kinase assay was carried out in a 96-well plate format at a final volume of 100 μL. […] JNK1 was diluted in the following dilution buffer (20 mM HEPES pH 7.6, 0.1 mM EDTA, 2.5 mM MgCl2, 0.004% (w/v) Triton X100, 2 μg/ml Leupeptin, 20 mM B-glycerol phosphate, 0.1 mM Na3VO4 dithiothreitol) and then pre-mixed with cJun diluted in the substrate solution buffer (20 mM HEPES pH 7.6, 50 mM NaCl, 0.1 mM EDTA, 2.5 mM MgCl2, 0.05% (w/v) Triton X100). […] The enzyme, substrate and inhibitor mixture was allowed to equilibrate at room temperature for 15 minutes. The reaction was started by the addition of 10 μL of 10×ATP in kinase buffer (130 mM MgCl2, 6 mM dithiothreitol, 150 mM para-nitrophenyl phosphate, 100 μCi/ml γ-[^33P]-ATP). Reactions were allowed to proceed for 60 minutes before precipitation of protein via trichloroacetic acid (7.2% TCA final). […] The precipitate was washed with Phosphate Buffered Saline and the amount of phosphate incorporated into cJun was quantified by scintillation counting using a Packard Topcount-NXT. All assays were conducted under conditions where phosphate incorporation was linear with respect to time and enzyme concentration.

T1 sequence (P45983 whole entry): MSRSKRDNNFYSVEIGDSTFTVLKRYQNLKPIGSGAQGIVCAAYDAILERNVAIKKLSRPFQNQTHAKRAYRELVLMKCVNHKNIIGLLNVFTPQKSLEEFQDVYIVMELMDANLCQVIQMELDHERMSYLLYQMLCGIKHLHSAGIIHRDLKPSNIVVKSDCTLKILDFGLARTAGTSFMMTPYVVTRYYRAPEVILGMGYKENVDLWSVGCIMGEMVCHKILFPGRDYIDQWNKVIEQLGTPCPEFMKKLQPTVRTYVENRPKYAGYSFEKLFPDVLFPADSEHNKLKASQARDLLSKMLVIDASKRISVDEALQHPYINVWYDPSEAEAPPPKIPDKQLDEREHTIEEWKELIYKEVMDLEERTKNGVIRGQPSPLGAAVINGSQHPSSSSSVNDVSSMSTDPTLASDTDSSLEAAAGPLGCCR

Structure (SMILES) | pIC50
CCOc1ccc(Nc2ncc(C(N)=O)c(N[C@H]3CCC[C@@H]3O)n2)cc1 [Example B-1, 2-(4-ethoxyphenylamino)-4-((1S,2S)-2-hydroxycyclopentylamino)pyrimidine-5-carboxamide] | > 6.70
NC(=O)c1cnc(NC2CCOCC2)nc1Nc1ccc2ncccc2c1 [Example B-2, 4-(quinolin-6-ylamino)-2-(tetrahydro-2H-pyran-4-ylamino)pyrimidine-5-carboxamide] | > 6.70
NC(=O)c1cnc(NC2CCOCC2)nc1Nc1ccc2cn[nH]c2c1 [Example B-3, 4-(1H-indazol-6-ylamino)-2-(tetrahydro-2H-pyran-4-ylamino)pyrimidine-5-carboxamide] | > 6.70

Same assay, conditions: tested in one or more of the JNK1 biochemical assays; read-out: Act. Level (JNK1 biochemical assay IC50 activity level)

Structure (SMILES) | pIC50
CC[C@@H](C)Nc1nc(N[C@H]2CC[C@H](O)CC2)ncc1C(N)=O [Example A-189, 4-(sec-butylamino)-2-((1r,4R)-4-hydroxycyclohexylamino)pyrimidine-5-carboxamide] | > 6.70
CO[C@H]1CC[C@H](Nc2ncc(C(N)=O)c(NC3CCCC3)n2)CC1 [Example A-190, 4-(cyclopentylamino)-2-((1r,4r)-4-methoxycyclohexylamino)pyrimidine-5-carboxamide] | > 6.70
CC(C)Nc1nc(N[C@H]2CC[C@H](OC(F)F)CC2)ncc1C(N)=O [Example A-191, 2-((1r,4r)-4-(difluoromethoxy)cyclohexylamino)-4-(isopropylamino)pyrimidine-5-carboxamide] | > 6.70
NC(=O)c1cnc(NC2CCC(F)(F)CC2)nc1N[C@@H]1CCCC[C@H](O)C1 [Example A-192, 2-(4,4-difluorocyclohexylamino)-4-((1R,3S)-3-hydroxycycloheptylamino)pyrimidine-5-carboxamide] | > 6.70
NC(=O)c1cnc(N[C@H]2CC[C@H](O)CC2)nc1N[C@@H]1CCCOC1 [Example A-193, 2-((1r,4R)-4-hydroxycyclohexylamino)-4-((R)-tetrahydro-2H-pyran-3-ylamino)pyrimidine-5-carboxamide] | > 6.70
CN(C)C(=O)[C@H]1CC[C@H](Nc2ncc(C(N)=O)c(N[C@@H]3CCCOC3)n2)CC1 [Example A-194, 2-((1r,4R)-4-(dimethylcarbamoyl)cyclohexylamino)-4-((R)-tetrahydro-2H-pyran-3-ylamino)pyrimidine-5-carboxamide] | > 6.70
CC[C@H](C)Nc1nc(N[C@H]2CC[C@H](O)CC2)ncc1C(N)=O [Example A-195, 4-(sec-butylamino)-2-((1r,4S)-4-hydroxycyclohexylamino)pyrimidine-5-carboxamide] | > 6.70
CCO[C@H]1CC[C@H](Nc2ncc(C(N)=O)c(NC3CCC3)n2)CC1 [Example A-197, 4-(cyclobutylamino)-2-((1r,4r)-4-ethoxycyclohexylamino)pyrimidine-5-carboxamide] | > 6.70
C[C@@H]1CC[C@@H](Nc2nc(NC3CCC(F)(F)CC3)ncc2C(N)=O)C[C@H]1O [Example A-198, 2-(4,4-difluorocyclohexylamino)-4-((1R,3R,4R)-3-hydroxy-4-methylcyclohexylamino)pyrimidine-5-carboxamide] | > 6.70
CNC(=O)[C@H]1CC[C@H](Nc2ncc(C(N)=O)c(NC(C)C)n2)CC1 [Example A-199, 4-(isopropylamino)-2-((1r,4r)-4-(methylcarbamoyl)cyclohexylamino)pyrimidine-5-carboxamide] | > 6.70
CO[C@H]1CCC[C@H](Nc2ncc(C(N)=O)c(N[C@@H]3CCC[C@H](O)C3)n2)CC1 [Example A-200, 4-((1R,3S)-3-hydroxycyclohexylamino)-2-((1S,4S)-4-methoxycycloheptylamino)pyrimidine-5-carboxamide] | > 6.70
CO[C@@H]1CCC[C@@H](Nc2ncc(C(N)=O)c(N[C@@H]3CCC[C@H](O)C3)n2)CC1 [Example A-201, 4-((1R,3S)-3-hydroxycyclohexylamino)-2-((1R,4R)-4-methoxycycloheptylamino)pyrimidine-5-carboxamide] | > 6.70
